Test results as given in PubChem BioAssay (NCI).
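Compound exposure: 48 hours, 5 concentrations, 96-well plates. At the GI50, growth is halved. At the TGI there is no net growth.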

Assays:
Test in all cases: NCI tumour cell line growth inhibition, 48 h
HCC-2998 colon = tested on: HCC-2998 colon
HCT-116 colon = tested on: HCT-116 colon
EKVX NSCLC = tested on: EKVX NSCLC
K-562 leukemia = tested on: K-562 leukemia
HT29 colon = tested on: HT29 colon
HCT-15 colon = tested on: HCT-15 colon
SK-MEL-2 melanoma = tested on: SK-MEL-2 melanoma
MOLT-4 leukemia = tested on: MOLT-4 leukemia
SW-620 colon = tested on: SW-620 colon
SF-268 CNS = tested on: SF-268 CNS
OVCAR-3 ovarian = tested on: OVCAR-3 ovarian
SF-539 CNS = tested on: SF-539 CNS
UACC-257 melanoma = tested on: UACC-257 melanoma
CAKI-1 renal = tested on: CAKI-1 renal
NCI-H226 lung = tested on: NCI-H226 lung
M14 melanoma = tested on: M14 melanoma
HOP-62 NSCLC = tested on: HOP-62 NSCLC
TK-10 renal = tested on: TK-10 renal
SNB-19 CNS = tested on: SNB-19 CNS
LOX IMVI melanoma = tested on: LOX IMVI melanoma
ACHN renal = tested on: ACHN renal
SF-295 CNS = tested on: SF-295 CNS
PC-3 prostate = tested on: PC-3 prostate
T-47D breast = tested on: T-47D breast
OVCAR-8 ovarian = tested on: OVCAR-8 ovarian
MALME-3M melanoma = tested on: MALME-3M melanoma
SK-MEL-28 melanoma = tested on: SK-MEL-28 melanoma
OVCAR-5 ovarian = tested on: OVCAR-5 ovarian
786-0 renal = tested on: 786-0 renal
NCI-H23 lung = tested on: NCI-H23 lung
SNB-75 CNS = tested on: SNB-75 CNS
MCF7 breast = tested on: MCF7 breast
CCRF-CEM leukemia = tested on: CCRF-CEM leukemia
HS 578T breast = tested on: HS 578T breast
HL-60(TB) leukemia = tested on: HL-60(TB) leukemia
DU-145 prostate = tested on: DU-145 prostate
OVCAR-4 ovarian = tested on: OVCAR-4 ovarian
U251 CNS = tested on: U251 CNS
RXF 393 renal = tested on: RXF 393 renal
MDA-MB-231 breast = tested on: MDA-MB-231 breast
NCI-H522 lung = tested on: NCI-H522 lung
SN12C renal = tested on: SN12C renal
NCI-H460 lung = tested on: NCI-H460 lung
A498 renal = tested on: A498 renal
UO-31 renal = tested on: UO-31 renal
KM12 colon = tested on: KM12 colon
NCI/ADR-RES ovarian = tested on: NCI/ADR-RES ovarian
SR leukemia = tested on: SR leukemia
SK-MEL-5 melanoma = tested on: SK-MEL-5 melanoma
SK-OV-3 ovarian = tested on: SK-OV-3 ovarian
UACC-62 melanoma = tested on: UACC-62 melanoma
IGROV1 ovarian = tested on: IGROV1 ovarian
A549 NSCLC = tested on: A549 NSCLC
COLO 205 colon = tested on: COLO 205 colon
HOP-92 NSCLC = tested on: HOP-92 NSCLC
BT-549 breast = tested on: BT-549 breast
RPMI-8226 leukemia = tested on: RPMI-8226 leukemia

With `CCn1c(O)c(/C=N/NC(=O)C(C)c2ccc(CC(C)C)cc2)sc1=S` (centres undefined) the GI50 (HCC-2998 colon) was 839 nM, the TGI (HCC-2998 colon) was 13700 nM and the GI50 (HCT-116 colon) was 397 nM. The TGI (HCT-116 colon) was greater than 36900 nM, the GI50 (EKVX NSCLC) was 596 nM and the TGI (EKVX NSCLC) was greater than 46000 nM. The GI50 (K-562 leukemia) was 282 nM, the TGI (K-562 leukemia) was greater than 48400 nM and the GI50 (HT29 colon) was 2420 nM. The TGI (HT29 colon) was greater than 37800 nM, the GI50 (HCT-15 colon) was 379 nM and the TGI (HCT-15 colon) was greater than 35400 nM. It also gave a GI50 (SK-MEL-2 melanoma) of 3190 nM, a TGI (SK-MEL-2 melanoma) greater than 49800 nM and a GI50 (MOLT-4 leukemia) of 479 nM. It also gave a TGI (MOLT-4 leukemia) greater than 48200 nM, a GI50 (SW-620 colon) of 394 nM and a TGI (SW-620 colon) greater than 40900 nM. For the same compound, the GI50 (SF-268 CNS) was 1630 nM, the TGI (SF-268 CNS) was greater than 43400 nM and the GI50 (OVCAR-3 ovarian) was 272 nM. The TGI (OVCAR-3 ovarian) was 3970 nM, the GI50 (SF-539 CNS) was 214 nM and the TGI (SF-539 CNS) was 609 nM. It also gave a GI50 (UACC-257 melanoma) of 3160 nM, a TGI (UACC-257 melanoma) greater than 74900 nM and a GI50 (CAKI-1 renal) of 331 nM. The TGI (CAKI-1 renal) was greater than 33700 nM, the GI50 (NCI-H226 lung) was 797 nM and the TGI (NCI-H226 lung) was greater than 21400 nM. The GI50 (M14 melanoma) was 285 nM, the TGI (M14 melanoma) was 14500 nM and the GI50 (HOP-62 NSCLC) was 549 nM. For the same compound, the TGI (HOP-62 NSCLC) was greater than 50700 nM, the GI50 (TK-10 renal) was 2280 nM and the TGI (TK-10 renal) was greater than 50700 nM. It also gave a GI50 (SNB-19 CNS) of 433 nM, a TGI (SNB-19 CNS) greater than 41800 nM and a GI50 (LOX IMVI melanoma) of 594 nM. The TGI (LOX IMVI melanoma) was greater than 36100 nM, the GI50 (ACHN renal) was 813 nM and the TGI (ACHN renal) was greater than 38800 nM. It also gave a GI50 (SF-295 CNS) of 337 nM, a TGI (SF-295 CNS) greater than 34700 nM and a GI50 (PC-3 prostate) of 415 nM. It also gave a TGI (PC-3 prostate) greater than 41400 nM, a GI50 (T-47D breast) of 560 nM and a TGI (T-47D breast) greater than 100000 nM. The GI50 (OVCAR-8 ovarian) was 493 nM, the TGI (OVCAR-8 ovarian) was greater than 100000 nM and the GI50 (MALME-3M melanoma) was 331 nM. It also gave a TGI (MALME-3M melanoma) greater than 43000 nM, a GI50 (SK-MEL-28 melanoma) of 1000 nM and a TGI (SK-MEL-28 melanoma) greater than 45800 nM. For the same compound, the GI50 (OVCAR-5 ovarian) was 619 nM, the TGI (OVCAR-5 ovarian) was greater than 44700 nM and the GI50 (786-0 renal) was 606 nM. The TGI (786-0 renal) was greater than 40900 nM, the GI50 (NCI-H23 lung) was 673 nM and the TGI (NCI-H23 lung) was greater than 41100 nM. For the same compound, the GI50 (SNB-75 CNS) was 241 nM, the TGI (SNB-75 CNS) was 757 nM and the GI50 (MCF7 breast) was 346 nM. For the same compound, the TGI (MCF7 breast) was greater than 35100 nM, the GI50 (CCRF-CEM leukemia) was 230 nM and the TGI (CCRF-CEM leukemia) was greater than 100000 nM. It also gave a GI50 (HS 578T breast) of 294 nM, a TGI (HS 578T breast) greater than 40500 nM and a GI50 (HL-60(TB) leukemia) of 312 nM. It also gave a TGI (HL-60(TB) leukemia) of 1520 nM, a GI50 (DU-145 prostate) of 365 nM and a TGI (DU-145 prostate) greater than 22100 nM. For the same compound, the GI50 (OVCAR-4 ovarian) was 1080 nM, the TGI (OVCAR-4 ovarian) was greater than 52000 nM and the GI50 (U251 CNS) was 399 nM. The TGI (U251 CNS) was greater than 38000 nM, the GI50 (RXF 393 renal) was 222 nM and the TGI (RXF 393 renal) was 654 nM. For the same compound, the GI50 (MDA-MB-231 breast) was 515 nM, the TGI (MDA-MB-231 breast) was 7590 nM and the GI50 (NCI-H522 lung) was 277 nM. For the same compound, the TGI (NCI-H522 lung) was 5580 nM, the GI50 (SN12C renal) was 619 nM and the TGI (SN12C renal) was greater than 40300 nM. It also gave a GI50 (NCI-H460 lung) of 353 nM, a TGI (NCI-H460 lung) of 10900 nM and a GI50 (A498 renal) of 243 nM. It also gave a TGI (A498 renal) of 870 nM, a GI50 (UO-31 renal) of 483 nM and a TGI (UO-31 renal) of 16800 nM. The GI50 (KM12 colon) was 371 nM, the TGI (KM12 colon) was greater than 32800 nM and the GI50 (NCI/ADR-RES ovarian) was 276 nM. It also gave a TGI (NCI/ADR-RES ovarian) greater than 38800 nM, a GI50 (SR leukemia) of 198 nM and a TGI (SR leukemia) greater than 100000 nM. It also gave a GI50 (SK-MEL-5 melanoma) of 489 nM, a TGI (SK-MEL-5 melanoma) of 3260 nM and a GI50 (SK-OV-3 ovarian) of 666 nM. It also gave a TGI (SK-OV-3 ovarian) greater than 100000 nM, a GI50 (UACC-62 melanoma) of 435 nM and a TGI (UACC-62 melanoma) of 15000 nM. It also gave a GI50 (IGROV1 ovarian) of 419 nM, a TGI (IGROV1 ovarian) greater than 36900 nM and a GI50 (A549 NSCLC) of 472 nM. For the same compound, the TGI (A549 NSCLC) was greater than 54400 nM, the GI50 (COLO 205 colon) was 1230 nM and the TGI (COLO 205 colon) was 9040 nM. It also gave a GI50 (HOP-92 NSCLC) of 806 nM, a TGI (HOP-92 NSCLC) of 9650 nM and a GI50 (BT-549 breast) of 980 nM. It also gave a TGI (BT-549 breast) of 10300 nM, a GI50 (RPMI-8226 leukemia) of 425 nM and a TGI (RPMI-8226 leukemia) of 4830 nM.
